Laboratory results published in PMC6920875, “Dithiocarbamate as a Valuable Scaffold for the Inhibition of Metallo-β-Lactmases” (Biomolecules, 2019).

Legend:
[1] = target: T1, NDM-1 (Klebsiella pneumoniae, UniProt C7C422); assay: Inhibition kinetics, Lineweaver–Burk plots; assay type: biochemical
T1 construct: made in house; host or cells: E. coli BL21 (DE3), plasmid pET26b-NDM-1
Protocol: (§1) The dithiocarbamates, MβLs and substrates samples were prepared with 30 mM Tris, pH 7.0. […] Enzymes and inhibitors were pre-incubated for 5 min before adding substrate. […] The IC50 values were nonlinearly fitted by plotting the average percentage inhibition against inhibitor concentration. The inhibition modes of DC1 to ImiS, NDM-1 and L1 were assayed by generating Lineweaver–Burk plots, and Ki values were obtained by fitting initial velocity versus substrate concentration at each inhibitor concentration, using SigmaPlot 12.0 (Systat Software Inc., San Jose, CA, USA).
(§2) To further identify the inhibition mode of the DCs against MβLs, we performed inhibition kinetics of NDM-1, ImiS and L1 by DC1, at different concentrations, with different substrate concentrations. […] Enzyme and inhibitors were pre-incubated for 5 min before starting the kinetic assays. All experimental hydrolytic rates of substrates were determined in triplicate. The inhibition mode of dithiocarbamates on MβLs was identified by generating Lineweaver–Burk plots, and Ki values were gained by fitting the initial velocity versus substrate concentration at each inhibitor concentration, using SigmaPlot 12.0.

[2] = target: T2, L1 (Stenotrophomonas maltophilia, UniProt P52700); assay: Inhibition kinetics, Lineweaver–Burk plots; assay type: biochemical
T2 construct: made in house; host or cells: E. coli BL21 (DE3), plasmid pET-26b-L1
Protocol: as §1, §2

[3] = target: T1, NDM-1; assay: Inhibitor reversibility, activity recovery after rapid 100-fold dilution; assay type: biochemical; conditions: 1.3 μM enzyme, 10 min pre-incubation
Protocol: (§3) It can be observed in Figure 4d–f that the Q value remains almost unchanged in the presence or absence of inhibitors, likely because the formation of the enzyme-inhibitor complex (EI), that slowed down substrate hydrolysis, was reversible. […] We assayed the binding reversibility of DC1 to MβLs by measuring the enzymatic activity recovery after a large, rapid dilution of the MβL-DC1 complex.
(§4) Determination of inhibitor reversibility
(§5) NDM-1, ImiS and L1 were incubated at a concentration of 1.3, 5.0 and 5.8 μM, which is 100-fold over the concentration required for the activity assay, with DC1 at a concentration of 1.5, 0.7 and […]
(§6) After 10 minutes pre-incubation, the recovery of enzymatic activity was determined after rapid and large dilution (100-fold) with the reaction […]
(§7) Figure S2. Recovery of NDM-1 (a), ImiS (b) and L1 (c) activity after rapid dilution of the enzyme-inhibitor complex. The curve in black refers to the control sample pre-incubated and diluted in the absence of inhibitor. Curves in red refer to MβLs pre-incubated with DC1. […]

[4] = target: T2, L1; assay: as above; assay type: biochemical; conditions: 5.8 μM enzyme, 25.3 μM inhibitor, 10 min pre-incubation
Protocol: as §3, §4, §5, §6, §7

[5] = target: T3, ImiS (Aeromonas veronii, UniProt O31272); assay: as above; assay type: biochemical, Aeromonas veronii bv. sobria; conditions: 5.0 μM enzyme, 0.7 μM inhibitor, 10 min pre-incubation
T3 construct: made in house; host or cells: E. coli BL21 (DE3), plasmid pET-26b-ImiS
Protocol: as §3, §4, §5, §6, §7
Target sequence in this assay (O31272 28-255 limits assumed): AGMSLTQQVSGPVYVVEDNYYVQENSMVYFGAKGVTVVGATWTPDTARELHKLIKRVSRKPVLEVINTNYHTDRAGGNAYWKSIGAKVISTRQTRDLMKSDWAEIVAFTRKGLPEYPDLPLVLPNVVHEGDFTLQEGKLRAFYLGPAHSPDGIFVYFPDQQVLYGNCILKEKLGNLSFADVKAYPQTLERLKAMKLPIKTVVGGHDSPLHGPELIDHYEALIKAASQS

[6] = target: T3, ImiS; assay: Inhibition kinetics, Lineweaver–Burk plots; assay type: biochemical, Aeromonas veronii bv. sobria
Protocol: as §1, §2
Target sequence in this assay (O31272 28-255): as the sequence (O31272 28-255 limits assumed) above

[7] = target: T3, ImiS; assay: biochemical; design: species or system Aeromonas veronii bv. sobria; conditions: read-out: inhibition against ImiS
Protocol: as §1
Target sequence in this assay (O31272 28-255 limits assumed): as above
To evaluate the inhibitory activity of the dithiocarbamates, we over-expressed and purified MβLs NDM-1, VIM-2 and IMP-1 (B1), ImiS (B2), and L1 (B3) from three subclasses as previously reported. The inhibition experiments were performed with an Agilent UV8453 spectrometer. […] The concentrations of inhibitors were varied between 0 and 200 μM. The initial reaction rates were determined in the absence and presence of inhibitors in triplicate, and the generated average values were recorded.

[8] = target: T1, NDM-1; assay: Time-dependence inhibition experiment, residual activity; assay type: biochemical; conditions: 13 nM NDM-1 incubated with inhibitor at its IC50 for 8 h
[9] = tested on: mouse fibroblast cells (L-929); assay: Cytotoxicity assay (MTT); assay type: cell-based; conditions: concentration as high as 250 μM, 48 h
Protocol: The cytotoxicity assays were performed to evaluate the toxicity of DC1, DC3, DC7 and DC9 in mouse fibroblast cells (L-929). The cells were seeded into 96-well plates at a cell density of 1.0 × 10^4 cells/well, in 100 μL of culture medium and maintained for 24 h. Then, the inhibitors with working concentrations (15.6, 31.25, 62.5, 125, 250, and 500 μM) were added to the 96-well plates and incubated for another 48 h. Three wells containing only cells were suspended in a mixture solution of 98 μL complete medium, as controls for cell viability without inhibitors. Three wells containing only the complete medium were used as blank controls. Following that, the medium was removed, and 100 μL of fresh culture medium and 10 μL MTT were added to each well. After incubation for 4 h, the trays were then vigorously shaken to solubilize the formed product, and the absorbance, at a wavelength of 490 nm, was read on a microplate reader and analyzed. All experiments were conducted in triplicate, and the data are expressed as mean ± standard deviation.
The potential toxicity of dthiocarbamates DC1, DC3, DC7 and DC9 as representatives was assayed using the mouse fibroblast cells (L929) treated with different concentrations of inhibitors (15.625, 31.25, 62.5, 125, 250 and 500 μM).

T2 sequence (P52700 34-290): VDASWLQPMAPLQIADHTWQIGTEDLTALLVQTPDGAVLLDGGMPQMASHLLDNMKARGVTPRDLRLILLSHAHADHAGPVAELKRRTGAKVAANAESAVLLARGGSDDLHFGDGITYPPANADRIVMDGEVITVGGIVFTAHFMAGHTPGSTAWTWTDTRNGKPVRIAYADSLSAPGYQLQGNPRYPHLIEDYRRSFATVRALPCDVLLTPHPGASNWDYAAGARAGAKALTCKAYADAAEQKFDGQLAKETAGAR
T1 sequence (C7C422 29-270 limits assumed): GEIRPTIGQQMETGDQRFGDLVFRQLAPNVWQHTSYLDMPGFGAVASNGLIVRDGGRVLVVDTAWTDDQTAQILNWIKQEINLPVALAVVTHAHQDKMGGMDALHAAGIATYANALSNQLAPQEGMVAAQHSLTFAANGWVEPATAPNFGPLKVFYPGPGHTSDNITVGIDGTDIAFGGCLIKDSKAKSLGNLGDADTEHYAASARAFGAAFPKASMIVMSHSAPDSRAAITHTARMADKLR

O=C(NNC(=S)[S][K])c1ccccc1O [DC1]
inhibition mode against NDM-1 ([1]; Lineweaver–Burk plots): partially mixed inhibition
Ki ([1]; read-out: Ki against NDM-1, cefazolin 20-120 µM, inhibitor 0-20 μM, SigmaPlot fit): 0.29 µM
inhibition mode against L1 ([2]; Lineweaver–Burk plots): partially mixed inhibition
Ki ([2]; read-out: Ki against L1, cefazolin 20-120 µM, inhibitor 0-20 μM, SigmaPlot fit): 5.06 µM
reversibility, recovery of NDM-1 activity after rapid dilution [3]: reversible inhibitor
reversibility, recovery of L1 activity after rapid dilution [4]: reversible inhibitor
reversibility, recovery of ImiS activity after rapid dilution [5]: reversible inhibitor
melting point: 264 to 265 °C
inhibition mode against ImiS ([6]; Lineweaver–Burk plots): partially mixed inhibition
Ki ([6]; read-out: Ki against ImiS, imipenem 20-120 µM, inhibitor 0-20 μM, SigmaPlot fit): 0.14 µM
inhibition at 40 µM [7]: > 90%
time dependence of NDM-1 inhibition (residual activity) [8]: no time-dependent inhibition
survival rate of L929 mouse cells [9]: higher than 80%
